Data: patent US5770570A, “Method of delivering a vasoactive intestinal polypeptide, an encapsulated vasoactive intestinal polypeptide, and a method of making the encapsulated vasoactive intestinal polypeptide” (priority 1995, dated 1998)
Where “and” joins values, the source holds several entries; their conditions need not be identical. Equal entries are not always repeated. Ends that are not written are not given here. * marks the point of attachment. 125I = [125I]*

Key:
[1] = Release (leakage) of VIP from liposomes stored in buffer; type: physicochemical; details: stored in buffer at 4° C. for 14 days
Method: The release of VIP from the liposomes was determined as follows.
The peptide release from liposomes containing (tyr^10 -^125 I)VIP, approximately 20,000 cpm, kept at 4° C. in 50 mM HEPES, pH 7.3, containing 0.02% […] was determined by centrifugation of aliquots of the suspension at 12,400×g for 15 minutes and measurement of radioactivity in the supernatants.

[2] = test system: PG/PC/CH liposomes; assay: Binding of VIP by pre-formed lipid liposomes (PG/PC/CH); details: for binding of radiolabeled VIP by liposomes, % of available peptide: liposomes 2.5-45.6 mM Pi, 0.42 nM peptide
Method: (§1) Unilaminar phospholipid liposomes were formed using phosphatidylcholine (PC) and phosphatidylglycerol (PG) purified from egg yolk (Sigma). The fatty acid composition of the phospholipids determined by Sigma was: (PC, C16:0), (35%; C18:0, 12%; C18:1, 31%; C18:2, 14%); (PG, C16:0, 30%, C18:0, 13%; C18:1, 30%; C18:2, 16%). The unilamellar liposomes were prepared by reverse-phase evaporation as disclosed in Szoka, Jr., F. and Papahadjopoulos (1978) Proc. Natl. Acad. Sci. USA 75, 4194-4198), from a mixture of PG/PC/CH(cholesterol) (molar ratio 1:4:5) or PC/CH (1:1) dissolved in chloroform.
Peptide was permitted to bind liposome surface in aqueous solution. In organic solvents as in Example I, the peptide will be expressed in as well as on the lipid membranes of liposomes.
The liposomes were the pelleted (12,000×g, 10 min; Beckman centrifuge MICROFUGE®). The supernatant was aspirated and the liposome-associatedradioactivity was measured at 70% efficiency (Beckman model 5500 gamma counter). There was minimal loss of the liposomes in the supernatant, because more than 90% of the inorganic phosphate present in the reaction mixture was recovered in the pellet.
The binding data was corrected for peptide adsorption by the reaction tubes determined in parallel incubations.
Dissociation and saturability data were analyzed by means of Kinetic and Enzfitter (Elsevier Biosoft).
The binding of the VIP to the liposome was determined as follows. Unilamellar lipid liposomes were prepared by reverse evaporation and assayed for binding of radiolabeled VIP, as described above. BSA was included in the assay diluent to saturate nonspecific polypeptide binding sites in the lipid liposomes and the polypropylene surface of the reaction tubes.
(§2) Values are means±s.d. Probe-binding was with pre-formed liposomes (2.3 mM Pi) and 100 nM CF or 0.2 nM (tyr^10 -^125 I)VIP mixed with 100 nM unlabeled peptide. Encapsulation was by making liposomes from lipid solutions (2.6 mM Pi) containing 2.5 μM CF or 1.7 nM (Tyr^10 -^125 I)VIP mixed with 2.5 μM unlabeled VIP. Free probes were removed by three washes with 50 mM HEPES, pH 7.3, containing 0.5% BSA. CF values were determined by fluorimetry after solubilization of liposomes, and VIP values, by measurement of liposome-associated radioactivity.
FIG. 5 illustrates the results of the competitive inhibition of binding of (Tyr^10-^125)VIP (0.26 nM) by the liposomes (2.4 mM Pi) by unlabeled VIP (10 nM-1 mM). Data are means±s.d expressed as % of available radiolabeled peptide. […]

[3] = test system: PC/CH liposomes; assay: Binding of VIP by electrically neutral liposomes (PC/CH); details: VIP 100 nM
Method: as §1
The binding of VIP (100 nM) by electrically neutral and negative liposomes prepared from PC/CH and PG/PC/CH, respectively, was compared. In each case, the levels of peptide binding increased within increasing concentration of the liposomes. The values of % VIP bound±s.d./μmol Pi were, PG/PC/CH liposomes, 26.2+3.4; PC/CH liposomes, 12.6±1.5. […] The inclusion of cholesterol, an agent that can be expected to decrease bilayer fluidity at the temperatures used in this study, as reported in Demel, R. A. and DeKruyff, B. (1976) Biochim. Biophys.

[4] = test system: hamster check pouch microcirculation; assay: Untoward effects and leaky sites in check pouch microcirculation; type: in vivo; details: i.v. infusion in hamsters
Method: (§3) The animals were kept on a heated pad throughout the duration of the experiment. Arterial blood pressure was recorded continuously using a pressure transducer and a strip-chart recorder (Model 7702B, Hewlett-Packard). The microcirculation of the hamster check pouch was visualized using intravital microscopy and clearance of fluorescein isothiocyanic-dextran (M.W.=70 RD; Sigma) from postcapillary venules and determined as described in W. G. Mayhan and I. Rubinstein, J. Appl. Physiol., 75, pp. 27-32 (1993).
(§4) The number of leaky sites in check pouch microcirculation was determined every minute throughout the duration of the experiments as disclosed in W. G. Mayhan, Supra. The data is expressed as means±SEM. Students t-test for unpaired observations was used to compare responses to vasoactive intestinal peptide. A p value<0.05 was considered to be significant.

[5] = Encapsulation of probes by making liposomes in their presence (Table 1); type: physicochemical; details: liposomes made from lipid solutions 2.6 mM Pi containing 2.5 μM probe
Method: as §2

[6] = Release of liposome-bound VIP by solvent treatments (Table 2); type: physicochemical; details: twice 1 ml for 10 min, 23° C.
Method: Lipid liposomes (4 mM Pi) were permitted to bind (Tyr^10 -^125 I)VIP (1 nM), washed extensively to remove unbound radioactivity and then treated twice with 1 ml of the indicated solutions for 10 min (23° C.). Released radioactivity was determined in the pooled supernatant obtained by centrifugation. Values are % of initial liposome-bound radioactivity (76,300 CPM), corrected for peptide release in control incubations performed in 50 mM HEPES, pH 7.3 (4.2±3.4%).

[7] = test system: male golden Syrian hamsters; assay: Hypotensive effect (mean arterial blood pressure) in anesthetized hamsters; type: in vivo, hamster
Method: The hamsters were first prepared by anesthetizing intravenously 6 mg of sodium pentobarbital per 100 g of body weight. A tracheostomy was then performed to facilitate spontaneous breathing. Supplemental anesthesia was administered intravenously as necessary at 2-4 mg/100 g body weight/hour. A femoral artery was cannulated for blood pressure monitoring. A femoral vein was cannulated for drug and florescent tracer administration.
as §3
In each hamster, 1 ml aliquots of increasing concentrations of VIP dissolved in 0.15M sodium chloride or encapsulated in liposomes (1 nmol VIP/0.12 μmol phospholipids) were infused intravenously for 7 minutes.
Mean arterial blood pressure was recorded before, during, and for 60 minutes after administration of each concentration of the peptide.
as §4
The effect on blood pressure was determined by measuring the magnitude of reduction in mean arterial blood pressure (MAP) as a function of time following infusion of VIP dissolved in saline or encapsulated in liposomes.

[8] = test system: PC/PG liposomes; assay: Binding of VIP by liposomes without cholesterol (PC/PG); details: PC/PG liposomes (no cholesterol)
[9] = target: (tyr^10 -^125 I)VIP (radioiodinated synthetic vasoactive intestinal polypeptide)
[10] = pre-formed liposomes 2.3 mM Pi, 100 nM CF or 0.2 nM tracer with 100 nM unlabeled VIP

Substance: (tyr^10 -^125 I)VIP: VIP radioiodinated at tyrosine 10, used as tracer (HSDAVFTDNY(125I)TRLLRKQMAVKKYLNSILN-NH2)
- leakage of (tyr10-125I)VIP from the liposomes [1]: < 2 % of available radioactivity
- binding of radiolabeled VIP by liposomes, % of available peptide [2]: up to 56.6%
- binding of radiolabeled VIP by liposomes, % of available peptide ([2]; listed as radiolabeled VIP): up to 60%

Substance: HSDAVFTDNYTRLLRKQMAVKKYLNSILN-NH2 (not fully specified (residue 10); printed as HSDAVFTDNYTRLLRKQMAVKKYLNSILN-NH2) [VIP, synthetic 28-amino acid neuropeptide; conventional VIP solution used as comparator]
- % VIP bound/μmol Pi [3]: 12.6±1.5%
- apparent binding capacity at saturating VIP concentrations [2]: 1 mol VIP/12.5 mol phospholipid
- IC50 ([2]; 0.26 nM tracer, liposomes 2.4 mM Pi, read-out: IC50, competitive inhibition of partitioning of (Tyr10-125I)VIP into liposomes): 560 µM
- % VIP bound/μmol Pi ([2]; VIP 100 nM, PG/PC/CH liposomes): 26.2 ± 3.4% and 26.2%
- partition constant derived from the binding isotherm ([2]; nominal value, neutral pH): 1400 M⁻¹
- Binding [2, 10]: 20.5 ± 1.0 nM
- untoward effects during infusion [4]: did not display detectable untoward effects
- Encapsulation [5]: 37.5 ± 5.0 nM
- % VIP released ([6]; 1 mM HCl): 3.0 ± 3.5%
- % VIP released ([6]; 1 mM NaOH): 15.9 ± 4.0%
- % VIP released ([6]; 25 mM EDTA): 8.1 ± 10.0%
- % VIP released ([6]; 1% SDS): 81.1 ± 9.6%
- % VIP released ([6]; 1 M NaCl): 2.7 ± 3.0%
- decrease in MAP ([7]; 1 nmole per hamster): weak and transient decrease in MAP
- time at which a significant decrease in MAP was observed ([7]; 1 nmole per hamster, i.v. infusion 7 minutes): 5 min
- MAP values for treated animals (FIG. 2 legend, apparently baseline) ([7]; 1.0 nmole, 7 minutes i.v. infusion, n=5): 93.0 mm Hg
- return of arterial blood pressure to pre-infusion baseline ([7]; 1 nmole, FIG. 2): 9 min
- reversibility of the hypotensive effect ([7]; hamster, in vivo): fully reversible
- % VIP bound/μmole Pi [8]: 24.9%

Substance: carboxyfluorescein [CF]
- Binding [2, 10]: 0.01 ± 0.001 nM
- Binding, nM ([2]; pre-formed liposomes 2.3 mM Pi, 100 nM CF or 0.2 nM tracer with 100 nM unlabeled VIP, listed as carboxyfluorescein): very small amounts
- Encapsulation [5]: 82.5 ± 7.5 nM

Substance: trypsin from bovine pancreas (Sigma) (from UniProt P00760) (enzyme)
- peptide hydrolysis (trichloroacetic acid-soluble radioactivity of (tyr^10 -^125 I)VIP) [9]: 80 % digested
